Legend:
[1] = system: DEVD-pNA hydrolysis activity in 293 cell cytosolic extracts; assay: Cytochrome c/dATP-induced caspase activation (DEVD hydrolysis) in 293 cell cytosolic extracts; type: biochemical, human; settings: 293 extracts + cytochrome c/dATP; GST-XIAP 0.2 μM, GST controls 2 μM, His6-S5a 5 μM; untreated ≈0.01
Experimental: (§1) Cells were washed with ice cold buffer A (20 mM Hepes (pH 7.5), 10 mM KCl, 1.5 mM MgCl2, 1 mM EDTA, 1 mM DTT and 0.1 mM PMSF) and suspended in 1 vol buffer A, then incubated on ice for 20 min. 293 cells were disrupted by passage 15× through a 26 gauge needle and Jurkat T cells were disrupted by dounce homogenization in 2 ml using 15 strokes with a pestle B. Cell extracts (10–15 mg total protein/ml) were clarified by centrifugation at 16,000×g for 30 min, then the NaCl concentration was increased by 50 mM. Cytosolic fractions were used immediately or stored frozen at −80° C.
(§2) Caspase activity was assayed by release of either 7-amino-4-trifluoromethyl-coumarin (AFC) or p-nitroanilide (pNA) from benzylyoxycarbonyl-DEVD (SEQ ID NO: 2) or benzylyoxycarbonyl-YVAD (SEQ ID NO: 3) synthetic peptides using a Molecular Devices Spectromax 340 for AFC labeled peptides or Perkin/Elmer LS50B for pNA labeled peptides (see Example II; see, also, Zhou et al., supra, 1997). Cytosolic extracts from 293 cells or Jurkat T cells were used directly (negative control) or were treated with 1 μM cytochrome c and 1 mM dATP or with cytochrome c, dATP and 0.2 μM GST-XIAP. Additional control reactions were performed by substituting 2 μM GST-Bcl-2, GST-Bax, GST-NM23 or GST-CD40 cytosolic domain, or 5 μM His6-S5a protein for GST-XIAP. DEVD-pNA hydrolysis was measured at various times and multiple experiments were performed using several different GST-XIAP preparations.

[2] = system: DEVD-pNA hydrolysis activity in Jurkat T cell cytosolic extracts; assay: Cytochrome c/dATP-induced caspase activation (DEVD-pNA hydrolysis) in Jurkat T cell cytosolic extracts; type: biochemical; settings: for DEVD-pNA hydrolysis, ΔA405 after 15 min: untreated ≈0.02; for DEVD-pNA hydrolysis, ΔA405 after 20 min: untreated ≈0.025
Experimental: as §1, §2

| Molecule | DEVD-pNA hydrolysis, ΔA405 after 15 min [1] | DEVD-pNA hydrolysis, ΔA405 after 15 min [2] | DEVD-pNA hydrolysis, ΔA405 after 20 min [2] |
| --- | --- | --- | --- |
| GST-Bax: recombinant control protein, GST fusion of Bax [reference compound] | ≈ 0.1 | ≈ 0.09 | ≈ 0.1 |
| His6-S5a: recombinant control protein, His6-S5a proteasome subunit (protein, UniProt P55036 1-377, looked up, His6 tag, recombinant control protein, His6-S5a proteasome subunit) 26S proteasome non-ATPase …: MVLESTMVCVDNSEYMRNGDFLPTRLQAQQDAVNIVCHSKTRSNPENNVGLITLANDCEVLTTLTPDTGRILSKLHTVQPKGKITFCTGIRVAHLALKHRQGKNHKMRIIAFVGSPVEDNEKDLVKLAKRLKKEKVNVDIINFGEEEVNTEKLTAFVNTLNGKDGTGSHLVTVPPGPSLADALISSPILAGEGGAMLGLGASDFEFGVDPSADPELALALRVSMEEQRQRQEEEARRAAAASAAEAGIATTGTEDSDDALLKMTISQQEFGRTGLPDLSSMTEEEQIAYAMQMSLQGAEFGQAESADIDASSAMDTSEPAKEEDDYDVMQDPEFLQSVLENLPGVDPNNEAIRNAMGSLASQATKDGKKDKKEEDKK | ≈ 0.1 | ≈ 0.09 | ≈ 0.1 |

From US7192728B2, “Screening assays for agents that alter inhibitor of apoptosis (IAP) protein regulation of caspase activity” (The Burnham Institute, priority 1997, dated 2007)
